Active and inactive are the calls of the source.
How the values were obtained:
cells [1] = experiment: cells
[2] = HEp-2 cell cytotoxicity, dose response, cytotoxicity control for RSV inhibitor project, HTS (AID 2410); type: functional; settings: human respiratory syncytial virus
Leucine aminopeptidase = target: T1, Leucine aminopeptidase (Plasmodium falciparum 3D7, UniProt Q8IL11); experiment: P. falciparum M17LAP inhibitors, primary screen, biochemical, fluorogenic H-Leu-NHMec substrate, 1536-well (AID 1619); type: functional
T1 sequence (Q8IL11 whole entry): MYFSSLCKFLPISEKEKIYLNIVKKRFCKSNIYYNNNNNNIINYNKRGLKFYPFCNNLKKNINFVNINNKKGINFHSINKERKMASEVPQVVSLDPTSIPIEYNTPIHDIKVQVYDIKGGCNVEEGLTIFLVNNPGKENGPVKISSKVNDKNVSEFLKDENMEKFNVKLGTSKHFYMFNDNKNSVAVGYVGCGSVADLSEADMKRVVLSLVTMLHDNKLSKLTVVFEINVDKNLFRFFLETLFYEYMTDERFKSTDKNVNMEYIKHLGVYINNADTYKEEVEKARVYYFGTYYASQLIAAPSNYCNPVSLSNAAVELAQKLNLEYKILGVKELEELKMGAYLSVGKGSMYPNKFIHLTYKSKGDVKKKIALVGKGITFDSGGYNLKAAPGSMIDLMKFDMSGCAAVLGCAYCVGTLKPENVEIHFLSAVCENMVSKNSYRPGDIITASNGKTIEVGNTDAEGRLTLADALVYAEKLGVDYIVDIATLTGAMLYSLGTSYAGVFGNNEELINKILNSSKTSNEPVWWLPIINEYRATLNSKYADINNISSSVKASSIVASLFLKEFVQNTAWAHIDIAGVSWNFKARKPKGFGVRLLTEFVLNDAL

cells [3] = experiment: cells; remark: listed apart in the source
Major prion protein = Major prion protein (Homo sapiens, UniProt P04156); type: functional, cell-based
[4] = cytotoxicity in HEK-293T cells, dose response, cytotoxicity control for BCR NF-kB inhibitor project, luminescence, B-cell screen hits (AID 489021); type: functional, cell-based;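 note: HEK-293T cells carrying an NF-kB luciferase reporter; cells exposed to compound for about 14 hours before viability readout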
Vero = experiment: cells; type: functional; settings: Chlorocebus sabaeus
Melanocortin receptor 4 = Melanocortin receptor 4 (Homo sapiens, UniProt P32245); type: functional, cell-based;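 note: Cell-based assay with luminescence read-out, confirmatory dose-response testing for agonist activity of biased ligands at MC4R; human U2OS cells with tagged receptor and beta-arrestin; potency of agonists that increase receptor coupling to beta-arrestin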
[5] = Luminescence Cell-Based Dose Response HTS to Identify Inhibitors of 5'UTR Stem-Loop Driven Prion Protein mRNA Translation in H4 Neuroglioblastoma Cells. [Related pubchem assays: 1827 (Project Summary), 1813 (Primary HTS)]; type: functional
[6] = inhibitors of SNCA 5'UTR-driven reporter translation, confirmation, H4 neuroglioma cells, luminescence (AID 1988); type: functional, cell-based
[7] = inhibitors of firefly luciferase expression or activity, dose response, H4 neuroglioma cells, luminescence (AID 1990); type: functional, cell-based
[8] = A Cell Based Secondary Assay To Explore Cytotoxicity of Compounds that Sensitize Mycobacterium Tuberculosis to Beta-Lactam Antibiotics.; type: functional
[9] = target: Heat shock protein HSP 90-alpha (Homo sapiens, UniProt P07900); type: functional, organism-based
[10] = target: T2, Heat shock factor protein 1 (Mus musculus, UniProt P38532); experiment: inhibition of MG132-induced HSE-luciferase signal, confirmation, cell-based, NIH3T3, luminescence, dose retest (AID 2382); type: functional;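 note: NIH3T3 fibroblasts with HSF1-driven luciferase reporter stressed by proteasome inhibitor MG132; luminescence from HSF1-driven luciferase expression after 8 hours of MG132 stress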
T2 sequence (P38532 whole entry): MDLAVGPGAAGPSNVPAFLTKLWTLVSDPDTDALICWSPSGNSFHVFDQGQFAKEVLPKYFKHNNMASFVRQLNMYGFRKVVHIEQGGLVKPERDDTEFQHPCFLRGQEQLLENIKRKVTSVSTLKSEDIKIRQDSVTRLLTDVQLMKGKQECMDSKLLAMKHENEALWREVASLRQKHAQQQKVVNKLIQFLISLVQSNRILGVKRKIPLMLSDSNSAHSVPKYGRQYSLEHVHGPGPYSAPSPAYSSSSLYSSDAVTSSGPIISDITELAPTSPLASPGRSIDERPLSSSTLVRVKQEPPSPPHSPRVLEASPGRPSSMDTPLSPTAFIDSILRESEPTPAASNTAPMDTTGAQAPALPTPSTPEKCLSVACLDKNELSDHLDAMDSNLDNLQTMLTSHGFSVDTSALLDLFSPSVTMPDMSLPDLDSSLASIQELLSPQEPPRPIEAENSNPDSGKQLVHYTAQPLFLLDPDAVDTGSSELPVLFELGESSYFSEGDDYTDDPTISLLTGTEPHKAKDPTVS

[11] = target: T3, Alkaline phosphatase, tissue-nonspecific isozyme (Homo sapiens, UniProt P05186); experiment: human TNAP enzyme inhibitors, SAR follow-up, biochemical, luminescent, dose response (AID 1056)
T3 sequence (P05186 whole entry): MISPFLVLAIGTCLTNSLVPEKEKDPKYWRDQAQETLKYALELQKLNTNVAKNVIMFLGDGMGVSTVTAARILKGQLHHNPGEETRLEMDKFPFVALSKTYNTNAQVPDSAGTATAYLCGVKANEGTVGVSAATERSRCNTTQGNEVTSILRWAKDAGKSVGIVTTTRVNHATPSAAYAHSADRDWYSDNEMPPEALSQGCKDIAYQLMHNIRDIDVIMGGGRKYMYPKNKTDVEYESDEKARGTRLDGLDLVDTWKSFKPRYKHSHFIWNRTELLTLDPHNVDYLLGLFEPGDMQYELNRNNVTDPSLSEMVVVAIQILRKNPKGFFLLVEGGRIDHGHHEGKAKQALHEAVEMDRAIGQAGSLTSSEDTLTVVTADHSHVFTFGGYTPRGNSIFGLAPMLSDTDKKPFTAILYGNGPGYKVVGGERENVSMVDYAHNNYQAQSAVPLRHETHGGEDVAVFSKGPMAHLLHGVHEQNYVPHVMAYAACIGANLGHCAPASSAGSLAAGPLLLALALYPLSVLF

[12] = target: Glyceraldehyde-3-phosphate dehydrogenase (Homo sapiens, UniProt P04406)
[13] = C. albicans growth with fluconazole, confirmation, fluorescence, retest (AID 2467); type: functional, cell-based
[14] = cytotoxicity toward NIH3T3 fibroblasts, dose response, counter-screen, cell-based, ATP luminescence, mouse fibroblasts (AID 2010); type: functional;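 note: cells exposed to compound for about 90 hours before reading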
[15] = NIH-3T3 fibroblast cytotoxicity, dose response, cytotoxicity control, cell-based, fluorescence, Alamar Blue, secondary assay (AID 2327); type: functional;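 note: NIH-3T3 mouse fibroblasts cultured with fluconazole at 8 µg/mL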
[16] = inhibitors of intracellular T. cruzi replication, confirmation, NIH3T3 host cells, beta-gal luminescence (AID 2044); type: functional, cell-based;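 note: intracellular parasites grown in NIH/3T3 mouse fibroblasts as host cells; luminescent beta-galactosidase reporter signal from transgenic T. cruzi replicating inside host cells; inhibitors lower the luminescence signal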
[17] = target: Induced myeloid leukemia cell differentiation protein Mcl-1 (Homo sapiens, UniProt Q07820); type: functional
[18] = target: T4, Carboxy-terminal domain RNA polymerase II polypeptide A small phosphatase 1 (Homo sapiens, UniProt Q9GZU7); experiment: inhibitors of CTDSP1, concentration-response testing, biochemical assay, absorbance-based, actives from ultra-high-throughput screening (AID 540297); type: functional
T4 sequence (Q9GZU7 whole entry): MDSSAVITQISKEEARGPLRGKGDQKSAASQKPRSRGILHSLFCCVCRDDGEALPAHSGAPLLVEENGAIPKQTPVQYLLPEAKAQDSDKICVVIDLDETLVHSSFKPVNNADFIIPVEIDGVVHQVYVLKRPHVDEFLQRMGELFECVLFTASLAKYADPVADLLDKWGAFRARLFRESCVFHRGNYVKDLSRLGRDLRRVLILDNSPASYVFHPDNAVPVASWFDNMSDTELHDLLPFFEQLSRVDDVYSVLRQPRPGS

[19] = ZM109 Env clade C HIV-1 fusion inhibitors, dose response, HeLa effector, CEM target cells, luciferase, cherry-pick (AID 652058); type: functional, cell-based
[20] = inhibitors of HIV Env-driven cell fusion, dose response, cherry-pick (AID 652057); type: functional, cell-based
[21] = off-target signal loss in HeLa-CEM21 co-culture – HeLa F-luc CTL cells, cherry-picked, counter-screen for HIV-1 Env fusion inhibitor project, dose response (AID 652040); type: functional, cell-based;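 note: potency for signal decrease marking cytotoxic or nonspecific inhibition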
[22] = inhibitors of clade B AD8 Env fusion, dose response, cell-based, cherry-pick (AID 652062); type: functional;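 note: luciferase signal from cell-cell fusion driven by HIV-1 clade B AD8 Env; potency is for inhibitors of fusion seen as a drop in luminescence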
[23] = control 3'UTR Renilla luciferase suppression, dose response, counter-screen for Shn3 inhibitor project, cell-based, Clone20-Shn3RL, cherry-picked (AID 624133); type: functional
[24] = Shn3 3'UTR reporter inhibitors, dose response, cell-based, Clone20 osteoblasts, firefly luciferase, cherry-picked (AID 624132); type: functional;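 note: firefly luciferase luminescence from reporter carrying the Shn3 3'UTR in osteoblasts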
Cytochrome P450 3A4 = Cytochrome P450 3A4 (Homo sapiens, UniProt P08684);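 note: CYP3A4 tested as one member of a cytochrome P450 panel screen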
[25] = HepG2 cell cytotoxicity, dose response, cytotoxicity control for Shn3 inhibitor project, CellTiter-Glo, cherry-picked (AID 624134); type: functional, cell-based
Paired box protein Pax-8 = Paired box protein Pax-8 (Homo sapiens, UniProt Q06710); experiment: inhibitors of PAX8-driven TPO luciferase reporter, dose response, RMG-I cells, cherry-pick (AID 687027); type: functional, cell-based;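 note: luciferase reporter driven by Pax8 target thyroperoxidase promoter measured by SteadyGlo luminescence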
[26] = NIH:OVCAR-3 ovarian cancer cell cytotoxicity, dose response, PAX8 inhibitor project, plate reader, dry powder samples (AID 743044); type: functional, cell-based

O=C(O)c1cccc(NC(=S)NC(=O)c2ccc(-c3ccc(Cl)cc3)o2)c1
IC50 (cells [1]): 11.4 µM (active) | CC50 [2]: 27.8 µM (active)

O=C(O)c1cccc(C(=O)Cc2ccccc2)c1
IC50 (Leucine aminopeptidase): 17.5 µM (active)

O=C(CN1C(=O)c2ccccc2S1(=O)=O)NCCSCc1ccco1
IC50 (Leucine aminopeptidase): 16.2 µM (active)

CCc1nc(SCC(=O)Nc2nc3c(s2)CCCC3)c2ccccc2n1
IC50 (cells [3]): > 138 µM (inactive) | IC50 (Major prion protein): 6.97 µM (active)

COc1ccc2[nH]c(C(=O)Nc3ccc(C)c(F)c3)cc2c1
IC50 (cells [3]): > 138 µM (inactive) | IC50 (Major prion protein): 10.5 µM (inactive)

C=CCN1C(=O)NC(=O)/C(=C(\C)NC(C)c2ccccc2)C1=O (configuration not stated)
IC50 [4]: > 80 µM (inactive)

Cc1ccc(C(=O)Cn2c(C(=O)/C=C/c3ccccc3)nc3ccccc32)cc1
CC50 (Vero): 16.4 µM (active) | EC50 (Melanocortin receptor 4): > 89.2 µM (inactive)

COc1cccc(/C=C2/SC(=S)N(CCCC(=O)Nc3ccc(O)cc3)C2=O)c1
EC50 (Melanocortin receptor 4): > 89.2 µM (inactive) | EC50 [5]: 8.15 µM (active) | IC50 [4]: 29 µM (inactive) | EC50 [6]: 16.3 µM (active) | EC50 [7]: 6.72 µM (active)

CC(C)(C)c1nn(-c2ccccc2)c2nc(O)c(CNc3ccc4c(c3)OCCO4)cc12
CC50 [8]: > 40 µM (active) | AC50 [9]: 8.3 µM (active) | EC50 [10]: 83.3 µM (active)

NNC(=O)c1cc(-c2ccc(Cl)c(Cl)c2Cl)n[nH]1
IC50 [11]: 0.633 µM (active) | IC50 [12]: > 10 µM (inconclusive)

Cn1nc(-c2ccc(Cl)cc2)c2cc(C(=O)N3CCCC3)sc21
IC50 [4]: > 80 µM (inactive)

Oc1ccc(N2CCN(c3ncnc4sc(-c5ccccc5)cc34)CC2)cc1
EC50 [13]: 1.21 µM (active) | EC50 (Melanocortin receptor 4): > 89.2 µM (inactive) | EC50 [14]: > 60 µM (not active) | EC50 [15]: > 160 µM (inactive) | EC50 [16]: 3.78 µM (active) | IC50 [17]: 1.43 µM (active)

Cn1c(=O)cc(OCCCC(=O)NCc2ccccn2)c2ccccc21
IC50 [4]: > 80 µM (inactive)

COc1ccccc1NC(=O)Nc1ccc2c(c1)CCC2
IC50 (cells [1]): 40.5 µM (active) | CC50 [2]: 46.2 µM (active)

Cn1c(=O)c2nc(CNCc3ccccc3Cl)[nH]c2n(C)c1=O
CC50 [8]: > 40 µM (active)

Cc1ccc(C2C(C#N)=C(N)SC(N)=C2C#N)cc1
IC50 (cells [3]): > 138 µM (inactive) | IC50 (Major prion protein): 1.86 µM (active)

COc1ccccc1OCCOc1ccc(/C=C2\C(=N)N3N=C(S(C)(=O)=O)SC3=NC2=O)cc1
IC50 [18]: 3.6 µM (active) | CC50 [2]: 22.5 µM (active)

CCOC(=O)[C@@H]1[C@H]2COc3ccc(Br)cc3[C@@H]2N2C(=O)N(c3ccccc3)C(=O)[C@@]12C
AC50 [19]: 6.14 µM (active) | AC50 [20]: 2.15 µM (active) | AC50 [21]: 5.09 µM (active) | AC50 [22]: 22.9 µM (active)

CN(C)S(=O)(=O)Oc1ccsc1C(=O)Nc1ccc(C(F)(F)F)cc1
CC50 [8]: > 40 µM (active)

CC1(C)CC(=O)c2c(n[nH]c2-c2cccs2)C1
IC50 [11]: 5.65 µM (active) | IC50 [12]: > 10 µM (inconclusive)

O=C(Nc1nnc(SCC(=O)N2CCCCC2)s1)c1cccs1
IC50 (Leucine aminopeptidase): 30.4 µM (active)

CCN(C(=O)c1cc2cc3ccc(C)cc3nc2o1)c1ccc(OC)cc1
IC50 (cells [1]): 33 µM (active) | CC50 [2]: > 50 µM (active)

COC(=O)c1ccc(C)c(NC(=O)CN2C(=O)c3ccccc3S2(=O)=O)c1
IC50 (Leucine aminopeptidase): 10 µM (active)

Cc1cc2ncn(CC(=O)c3ccc(O)c(O)c3)c2cc1C
IC50 [11]: > 100 µM (inactive)

Fc1cccc(Cc2c(-c3ccco3)nc3ccc(Br)cn23)c1
IC50 (cells [3]): > 138 µM (inactive) | IC50 (Major prion protein): 6.29 µM (active)

NC(c1csc(NC(=O)Nc2cccc(Cl)c2)n1)C1CCCCC1 (configuration not stated)
EC50 (Melanocortin receptor 4): > 89.2 µM (inactive)

OC1(c2ccc(OC(F)F)cc2)CS/C(=N\c2cccnc2)N1C1CC1 (configuration not stated)
AC50 [19]: 36.4 µM (active) | AC50 [23]: 29.4 µM (active) | AC50 [24]: 5.4 µM (active) | AC50 [21]: > 70 µM (inactive) | AC50 [22]: 0.464 µM (active) | AC50 (Cytochrome P450 3A4): 0.794 µM (inconclusive) | AC50 [25]: 7.56 µM (active)

COc1cccc(-c2ccc3c(c2)[C@H]2[C@H](CCN2C(=O)NC2CCCCC2)[C@@H](CO)N3C)c1
AC50 (Paired box protein Pax-8): 10.6 µM (active) | AC50 [26]: 27.1 µM (active)

CC1CCN(C(=O)c2ncn3c2C(=O)N[C@H](C)C3)CC1
AC50 [19]: 26.6 µM (active) | AC50 [20]: 4.8 µM (active) | AC50 [21]: 16.1 µM (active) | AC50 [22]: 8.4 µM (active)

C[C@H]1CN([C@@H](C)CO)S(=O)(=O)c2ccc(C#Cc3ccc(F)cc3)cc2O[C@@H]1CN(C)C(=O)NC1CCCCC1
AC50 (Paired box protein Pax-8): 6.32 µM (active) | AC50 [26]: 37.8 µM (active)

CN(C)CCC/N=C/c1c(-c2ccccc2)nn(-c2nc3ccccc3s2)c1O
IC50 [4]: > 80 µM (inactive)
